Data published in PMC8303187, “Anti-Inflammatory Effects of Compounds from Cudrania tricuspidata in HaCaT Human Keratinocytes” (International Journal of Molecular Sciences, 2021).

Assays:
Type in all cases: cell-based, human
[1] = tested on: p38 phosphorylation in HaCaT cells; experiment: p38 phosphorylation in TNF-α + IFN-γ-treated HaCaT cells (Western blotting); details: HaCaT cells pretreated 3 h, then TNF-α + IFN-γ (20 ng/mL) 6 h; Western blot
Experimental: (§1) Stimulation of keratinocytes with TNF-α + IFN-γ upregulates various MAPK signaling pathways. To evaluate the anti-inflammatory effects of the six compounds from C. tricuspidata on the MAPK pathway, Western blotting analysis was used to determine the phosphorylation levels of JNK1/2, ERK1/2, and p38 in TNF-α + IFN-γ-treated HaCaT cells. Cells were pretreated with the six compounds from C. tricuspidata at the indicated concentrations for 3 h, and then stimulated with TNF-α + IFN-γ (20 ng/mL) for either 15 min, 2 h, or 6 h. Following the treatment with TNF-α + IFN-γ for 2 h, the phosphorylation of JNK1/2 was not inhibited by any of the six compounds (Figure 6A,B). After 15 min of treatment with TNF-α + IFN-γ, ERK1/2 phosphorylation was inhibited only by compound 14 (Figure 6C,D). The phosphorylation of p38 was inhibited only by compounds 13 and 4 after 6 h of treatment with TNF-α + IFN-γ (Figure 6E,F). […]
(§2) Figure 6 Effect of the six compounds from C. tricuspidata on JNK-1/2, ERK-1/2, and p38 phosphorylation in HaCaT cells. […] Cell extracts were analyzed using Western blotting and antibodies specific for phosphorylated JNK1/2 (p-JNK1/2), p-ERK1/2, or p-p38. […] Immunoblots were quantified using ImageJ software. The band intensity was quantified and normalized to each total protein concentration. * p < 0.05, ** p < 0.01, and *** p < 0.001 compared with TNF-α + IFN-γ only. […]

[2] = tested on: COX-2 protein expression in HaCaT cells; experiment: COX-2 protein expression in TNF-α + IFN-γ-treated HaCaT cells (Western blotting); details: HaCaT cells pre-incubated 3 h (5–80 μM), then TNF-α + IFN-γ (20 ng/mL) 24 h; Western blot
Text: (§3) ICAM-1 is expressed in keratinocytes and is critical for the development of many skin diseases, such as contact dermatitis and lichen planus. Cyclooxygenase (COX) is the enzyme responsible for the conversion of arachidonic acid to prostaglandin H2, which is the main step in the prostaglandin synthesis pathway. COX-2 expression plays a key role in skin inflammation. In this experiment, the anti-inflammatory effects of the six compounds from C. tricuspidata on the expression of pro-inflammatory proteins were investigated in TNF-α + IFN-γ-treated HaCaT cells. Briefly, cells were pre-incubated for 3 h with or without the six compounds from C. tricuspidata (5–80 μM) and were subsequently challenged with TNF-α + IFN-γ (20 ng/mL) for 24 h. […]
(§4) Figure 4 Protein expression levels of COX-2 (A,B) and ICAM-1 (C,D) in TNF-α + IFN-γ-treated HaCaT cells. […] The immunoblot was quantified using ImageJ software. […]
(§5) Cells were harvested and pelleted via centrifugation at 200× g for 3 min, washed with PBS, and lysed in 20 mM Tris-HCl buffer (pH 7.4) containing a protease inhibitor mixture (0.1 mM phenylmethanesulfonyl fluoride, 5 mg/mL aprotinin, 5 mg/mL pepstatin A, and 1 mg/mL chymostatin). The protein concentration was determined using a protein assay dye reagent concentrate (#5000006; Bio-Rad Laboratories, Hercules, CA, USA). […]

[3] = tested on: ICAM-1 protein expression in HaCaT cells; experiment: ICAM-1 protein expression in TNF-α + IFN-γ-treated HaCaT cells (Western blotting); details: HaCaT cells pre-incubated 3 h (5–80 μM), then TNF-α + IFN-γ (20 ng/mL) 6 h; Western blot
Text: as §3, with “[…] Previous studies have reported that compound 6 inhibits” for “Briefly, cells were pre-incubated for 3 h with or without”, “expression of COX-2 [55]; however, this study is the first to report the inhibition of COX-2 protein production by compound 6 in HaCaT cells.” for “six compounds from C. tricuspidata (5–80 μM) and were subsequently challenged with TNF-α + IFN-γ (20 ng/mL) for 24 h.”
as §4, §5

[4] = tested on: ERK1/2 phosphorylation in HaCaT cells; experiment: ERK1/2 phosphorylation in TNF-α + IFN-γ-treated HaCaT cells (Western blotting); details: HaCaT cells pretreated 3 h, then TNF-α + IFN-γ (20 ng/mL) 15 min; Western blot
Experimental: as §1, §2

| Compound | phosphorylation of p38 [1] | expression level of COX-2 [2] | ICAM-1 expression [3] | ERK1/2 phosphorylation [4] |
| --- | --- | --- | --- | --- |
| CC(C)=CCc1c(O)cc2c(c1O)C(=O)C[C@@H](c1ccc(O)cc1O)O2 [Compound 4, cudraflavanone B] | inhibited |  |  |  |
| C=CC(C)(C)c1c(O)cc(O)c2c(=O)c3cc(O)c(O)cc3oc12 [Compound 14, cudratricusxanthone L] |  | decreased | particularly effective | inhibited |
| C=CC(C)(C)c1c(OC)cc2oc3cc(O)c(O)cc3c(=O)c2c1O [Compound 13, 1,6,7-trihydroxy-2-(1,1-dimethyl-2-propenyl)-3-methoxyxanthone] | inhibited |  |  |  |
| CC(C)=CCc1c(O)cc2oc(-c3ccc(O)cc3O)c(CC=C(C)C)c(=O)c2c1O [Compound 6, cudraflavone C] |  | decreased | particularly effective |  |
